Measured values from patent US20240024261A1, “PHARMACEUTICAL COMPOSITION FOR IMPROVING COGNITIVE ABILITY OR ENHANCING MEMORY” (DR. RAYMOND LAB INC, priority 2020, published 2024).
“And” between values parts separate entries of the source, which are not always exact repeats. Equal values may be shown once. Where a name gives a salt, the structure may show the parent alone. Read-outs that look alike come from different tables or passages of the source.

Experiments:
TNF-α = assay: Inflammatory cytokine TNF-α in hippocampus (ELISA); type: in vivo, mouse; settings: scopolamine, mean ± standard error
Method: (§1) On the next day of the end of the passive avoidance test, the test material was administered, and the objects were allowed to stand in a home cage for 30 minutes. Subsequently, Scopolamine was intraperitoneally administered at a dose of 1 mg/kg, and then the objects were allowed to stand in a home cage for 30 minutes.
(§2) A brain tissue was separately separated and stored at −70° C. until analysis.
(§3) Inflammatory cytokine in a brain tissue was measured with a supernatant liquid obtained by adding a tissue protein extraction reagent (Biovision, CA, USA) to a brain tissue, crushing it, and centrifuging it, using an ELISA Kit (R&D System, MN, USA).

ICR mouse = assay: Passive avoidance test in scopolamine-treated mice; type: in vivo; settings: scopolamine i.p., mean ± standard error
Method: Each material prepared in the preparation example was prepared so that each may be orally administered to 7 experimental groups in the following and Table 1.
In the following Table 1, only the excipient prepared in the preparation examples was orally administered to a normal control group and a negative control group, respectively, scopolamine was administered to the remaining experimental groups (G2-G7) other than the normal control group (G1) in the behavioral experiment of Test Example 4 to cause cognitive function decline and a memory impairment effect, and then the behavior was observed.
After the test material (drug) of Test Example 3 was administered to each experimental group during the test, a passive avoidance test was performed, and change in mouse behavior was observed.
After each of the test materials was administered to each experimental group of Table 1 of Test Example 3, the passive avoidance test was performed on day 25 by the following procedure: • a) The object was put into an unlit white room of a conditioning box for the passive avoidance test, and then was adapted for 60 seconds. • b) A guillotine door was opened simultaneously with turning on a LED light of the white room, and the object was allowed to explore a dark room for 180 seconds for adaptation. • c) On the next day (day 26) also, the above process was performed and repeated once more, and the object was adapted so that it took around 30 seconds to enter the dark room after turning on the LED light. • d) After administering the drug 1 hour before learning on day 27, 4 mL/kg of Scopolamine which was dissolved at 0.25 mg/mL in a 0.9% saline solution was intraperitoneally administered to the objects of the remaining experimental groups other than the normal control group (G1), respectively, after 30 minutes, and the objects were allowed to stand for 30 minutes in the breeding box. • e) 30 minutes after administering Scopolamine, the objects were put into the unlit white room, the guillotine door was opened simultaneously with turning on the LED light after 10 seconds. When all of the four legs of the objects entered to the dark room, the guillotine door was closed, the time spent (latency time) was measured with a timer, and electrical stimulation was given at 0.5 mA for 3 seconds.

IL-1β = assay: Inflammatory cytokine IL-1β in hippocampus (ELISA); type: in vivo, mouse; settings: scopolamine, mean ± standard error
Method: as §1, §2, §3

acetylcholine = assay: Acetylcholine content in hippocampus after passive avoidance test; type: in vivo, mouse; settings: scopolamine, mean ± standard error
Method: as §1, §2
A choline assay buffer (Biovision, CA, USA) was added to a hippocampal tissue of the separated brain, crushed, and then centrifuged to obtain a supernatant liquid, which was used in the test.
The amount of acetylcholine in the supernatant liquid was measured using a choline/acetylcholine quantification kit (Biovision, CA, USA).

ceramide = assay: Ceramide content in brain tissue (forebrain); type: in vivo, mouse; settings: for Ceramide content, N-acyl chain length C14 / Ceramide content, N-acyl chain length C16 / Ceramide content, N-acyl chain length C18 / Ceramide content, N-acyl chain length C20 / Ceramide content, N-acyl chain length C22 / Ceramide content, N-acyl chain length C24 / Ceramide content, N-acyl chain length C24:1 / Ceramide content, N-acyl chain length C26 / Ceramide content, N-acyl chain length C26:1 / Ceramide content, Total: Neuromide 100 mg/kg oral, scopolamine
Method: Two types of forebrain parts of experimental groups G1, G2, and G5 in the brain tissues separated above were secured, respectively.
The ceramide contents were analyzed therefrom, and the average and the deviation thereof were calculated.
At this time, the measurement of the ceramide content was performed by confirmation and quantitative method of ceramide commonly known to a person skilled in the art.

[1] = Body weight during the test; type: in vivo, mouse; settings: mean ± standard error
Method: For all objects of each experimental group, when drug administration started, the body weight was measured twice a week from the start of administration until the end of the experiment, and was measured on the date of the final autopsy.

[2] = tested on: Acetylcholine esterase (AchE); type: in vivo; settings: forebrain, scopolamine, mean ± standard error
Method: as §1, §2
Acetylcholine esterase (AchE) activity was measured with a supernatant liquid obtained by adding a tissue protein extraction reagent (Biovision, CA, USA) to a forebrain tissue, crushing it, and centrifuging it, using an acetylcholinesterase activity assay kit (Biovision, CA, USA).

sphingoid base = assay: Sphingoid base content in brain tissue (forebrain); type: in vivo, mouse; set-up: Sphingoid base content, Sphingosine (SPN) / Sphingoid base content, S1P / Sphingoid base content, Sphinganine (Sa) / Sphingoid base content, Sa1P: unit not given here; settings: for Sphingoid base content, S1P / Sphingoid base content, Sa1P / Sphingoid base content, Sphinganine (Sa) / Sphingoid base content, Sphingosine (SPN): Neuromide 100 mg/kg oral, scopolamine
Method: Two types of forebrain parts of the experimental groups G1, G2, and G5 in the separated brain tissue were secured, respectively, the contents of sphingoid base were analyzed, and the average and the deviation were calculated.
At this time, the measurement of contents of sphingosine (SPN), sphinganine (Sa), sphingosine-1-phosphate (S1P), and sphinganine-1-phosphate (Sa1P) which are sphingoid bases was performed by confirmation and quantitative method of sphingoid bases commonly known to a person skilled in the art.

[3] = Donepezil 1 mg/kg oral, hydrochloride
[4] = Average of two forebrain samples
[5] = individual forebrain samples 5-2, 5-3, listed as Example 3

For `COc1cc2c(cc1OC)C(=O)C(CC1CCN(Cc3ccccc3)CC1)C2` (stereo not shown) [Donepezil, Donepezil hydrochloride, reference compound], the TNF-α (TNF-α; [3]) was 186.2 pg/mg tissue protein and 186.2 ± 30.3 pg/mg tissue protein, the “Passive avoidance test Time taken (latency time)” value (“Passive avoidance test Time taken” for short) (ICR mouse; [3]) was 45.6 s and 45.6 ± 14 s and the IL-1β (IL-1β; [3]) was 160.9 pg/mg tissue protein and 160.9 ± 23.2 pg/mg tissue protein. For the same compound, the Acetylcholine (acetylcholine; [3]) was 1.8 Nmol/mg protein and 1.8 ± 0.2 Nmol/mg protein.

With `CCCCCCCCCCCCCCCC(=O)NC(CO)CO` [Neuromide, N-palmitoyl serinol] the TNF-α (TNF-α; Neuromide 16 mg/kg oral) was 211.5 pg/mg tissue protein and 211.5 ± 25.3 pg/mg tissue protein, the TNF-α (TNF-α; Neuromide 40 mg/kg oral) was 196.2 pg/mg tissue protein and 196.2 ± 28.4 pg/mg tissue protein and the TNF-α (TNF-α; Neuromide 100 mg/kg oral) was 189.2 pg/mg tissue protein and 189.2 ± 33 pg/mg tissue protein. The “Passive avoidance test Time taken” value (ICR mouse; Neuromide 16 mg/kg oral) was 22.3 s and 22.3 ± 3.6 s, the “Passive avoidance test Time taken” value (ICR mouse; Neuromide 40 mg/kg oral) was 31 s and 31 ± 8.9 s and the “Passive avoidance test Time taken” value (ICR mouse; Neuromide 100 mg/kg oral) was 35.7 s and 35.7 ± 11.5 s. For the same compound, the IL-1β (IL-1β; Neuromide 16 mg/kg oral) was 194.7 pg/mg tissue protein and 194.7 ± 30.6 pg/mg tissue protein, the IL-1β (IL-1β; Neuromide 40 mg/kg oral) was 188.6 pg/mg tissue protein and 188.6 ± 32.4 pg/mg tissue protein and the IL-1β (IL-1β; Neuromide 100 mg/kg oral) was 151.5 pg/mg tissue protein and 151.5 ± 24.9 pg/mg tissue protein. For the same compound, the “Ceramide content, N-acyl chain length C14” value (ceramide; [4]) was 2.71, the “Ceramide content, N-acyl chain length C16” value (ceramide; [4]) was 284.09 and the “Ceramide content, N-acyl chain length C18” value (ceramide; [4]) was 3956.61. For the same compound, the “Ceramide content, N-acyl chain length C20” value (ceramide; [4]) was 92.88, the “Ceramide content, N-acyl chain length C22” value (ceramide; [4]) was 51.78 and the “Ceramide content, N-acyl chain length C24” value (ceramide; [4]) was 68.30. The “Ceramide content, N-acyl chain length C24:1” value (ceramide; [4]) was 453.42, the “Ceramide content, N-acyl chain length C26” value (ceramide; [4]) was 11.09 and the “Ceramide content, N-acyl chain length C26:1” value (ceramide; [4]) was 4.59. The “Ceramide content, Total” value (ceramide; [4]) was 4925.46, the ceramide synthesis amount (ceramide; forebrain, Neuromide 100 mg/kg) was “significantly increased” and the “Ceramide content, N-acyl chain length C14” value (ceramide; [5]) was 2.92 and 2.50. The “Ceramide content, N-acyl chain length C16” value (ceramide; [5]) was 288.68 and 279.51, the “Ceramide content, N-acyl chain length C18” value (ceramide; [5]) was 3980.71 and 3932.52 and the “Ceramide content, N-acyl chain length C20” value (ceramide; [5]) was 94.95 and 90.81. The “Ceramide content, N-acyl chain length C22” value (ceramide; [5]) was 60.05 and 43.51, the “Ceramide content, N-acyl chain length C24” value (ceramide; [5]) was 77.31 and 59.29 and the “Ceramide content, N-acyl chain length C24:1” value (ceramide; [5]) was 498.48 and 408.35. For the same compound, the “Ceramide content, N-acyl chain length C26” value (ceramide; [5]) was 12.46 and 9.72, the “Ceramide content, N-acyl chain length C26:1” value (ceramide; [5]) was 4.78 and 4.40 and the “Ceramide content, Total” value (ceramide; [5]) was 5020.32 and 4830.60. It also gave a Weight ([1]; Neuromide 16 mg/kg oral, day 0 after administration) of 34.9 ± 0.4 g, a Weight ([1]; Neuromide 16 mg/kg oral, day 1 after administration) of 35.1 ± 0.4 g and a Weight ([1]; Neuromide 16 mg/kg oral, day 5 after administration) of 35.9 ± 0.4 g. The Weight ([1]; Neuromide 16 mg/kg oral, day 8 after administration) was 36.4 ± 0.5 g, the Weight ([1]; Neuromide 16 mg/kg oral, day 12 after administration) was 36.4 ± 0.5 g and the Weight ([1]; Neuromide 16 mg/kg oral, day 15 after administration) was 36.3 ± 0.6 g. The Weight ([1]; Neuromide 16 mg/kg oral, day 19 after administration) was 37.3 ± 0.7 g, the Weight ([1]; Neuromide 16 mg/kg oral, day 22 after administration) was 37.2 ± 1^ g and the Weight ([1]; Neuromide 16 mg/kg oral, day 26 after administration) was 37.2 ± 0.8 g. It also gave a Weight ([1]; Neuromide 16 mg/kg oral, day 29 after administration) of 37.1 ± 0.9 g, a Weight ([1]; Neuromide 40 mg/kg oral, day 0 after administration) of 34.9 ± 0.4 g and a Weight ([1]; Neuromide 40 mg/kg oral, day 1 after administration) of 35.5 ± 0.4 g. The Weight ([1]; Neuromide 40 mg/kg oral, day 5 after administration) was 36 ± 0.3 g, the Weight ([1]; Neuromide 40 mg/kg oral, day 8 after administration) was 36.7 ± 0.4 g and the Weight ([1]; Neuromide 40 mg/kg oral, day 12 after administration) was 37.2 ± 0.4 g. It also gave a Weight ([1]; Neuromide 40 mg/kg oral, day 15 after administration) of 37.5 ± 0.4 g, a Weight ([1]; Neuromide 40 mg/kg oral, day 19 after administration) of 37.8 ± 0.4 g and a Weight ([1]; Neuromide 40 mg/kg oral, day 22 after administration) of 38 ± 0.4 g. For the same compound, the Weight ([1]; Neuromide 40 mg/kg oral, day 26 after administration) was 38.3 ± 0.4 g, the Weight ([1]; Neuromide 40 mg/kg oral, day 29 after administration) was 37.9 ± 0.5 g and the Weight ([1]; Neuromide 100 mg/kg oral, day 0 after administration) was 34.9 ± 0.4 g. The Weight ([1]; Neuromide 100 mg/kg oral, day 1 after administration) was 35.3 ± 0.5 g, the Weight ([1]; Neuromide 100 mg/kg oral, day 5 after administration) was 36.2 ± 0.5 g and the Weight ([1]; Neuromide 100 mg/kg oral, day 8 after administration) was 36.7 ± 0.7 g. The Weight ([1]; Neuromide 100 mg/kg oral, day 12 after administration) was 37.6 ± 0.5 g, the Weight ([1]; Neuromide 100 mg/kg oral, day 15 after administration) was 38 ± 0.6 g and the Weight ([1]; Neuromide 100 mg/kg oral, day 19 after administration) was 38.6 ± 0.6 g. It also gave a Weight ([1]; Neuromide 100 mg/kg oral, day 22 after administration) of 38.4 ± 0.7 g, a Weight ([1]; Neuromide 100 mg/kg oral, day 26 after administration) of 38.8 ± 0.6 g and a Weight ([1]; Neuromide 100 mg/kg oral, day 29 after administration) of 38.9 ± 0.8 g. For the same compound, the “Acetylcholinesterase (AchE) activity” value ([2]; Neuromide 16 mg/kg oral) was 7.17 mU/mg tissue protein and 7.17 ± 1.75 mU/mg tissue protein, the “Acetylcholinesterase (AchE) activity” value ([2]; Neuromide 40 mg/kg oral) was 7.79 mU/mg tissue protein and 7.79 ± 1.93 mU/mg tissue protein and the “Acetylcholinesterase (AchE) activity” value ([2]; Neuromide 100 mg/kg oral) was 6.19 mU/mg tissue protein and 6.19 ± 1.84 mU/mg tissue protein. For the same compound, the Acetylcholine (acetylcholine; Neuromide 16 mg/kg oral) was 1.1 Nmol/mg protein and 1.1 ± 0.1 Nmol/mg protein, the Acetylcholine (acetylcholine; Neuromide 40 mg/kg oral) was 1.1 Nmol/mg protein and 1.1 ± 0.3 Nmol/mg protein and the Acetylcholine (acetylcholine; Neuromide 100 mg/kg oral) was 1.5 Nmol/mg protein and 1.5 ± 0.2 Nmol/mg protein. The “Sphingoid base content, S1P” value (sphingoid base; [4]) was 183.74, the “Sphingoid base content, Sa1P” value (sphingoid base; [4]) was 69.57 and the “Sphingoid base content, Sphinganine (Sa)” value (sphingoid base; [4]) was 545.74. The “Sphingoid base content, Sphingosine (SPN)” value (sphingoid base; [4]) was 2010.00, the “S1P increase as compared with the normal control group” value (sphingoid base; forebrain, Neuromide 100 mg/kg) was ≥ 20% and the “Sphingoid base content, S1P” value (sphingoid base; [5]) was 159.43 and 208.05. For the same compound, the “Sphingoid base content, Sa1P” value (sphingoid base; [5]) was 69.16 and 69.98, the “Sphingoid base content, Sphinganine (Sa)” value (sphingoid base; [5]) was 506.47 and 585.01 and the “Sphingoid base content, Sphingosine (SPN)” value (sphingoid base; [5]) was 1861.23 and 2158.78.
